Measurements taken from PMC2248166, “Quantitative peptide binding motifs for 19 human and mouse MHC class I molecules derived using positional scanning combinatorial peptide libraries” (Immunome Research, 2008).

Legend:
Type in all cases: binding
HLA B*3501 = HLA B*3501 (Homo sapiens, UniProt P01889, A329T/A93T/A95T/C349S/D201E/D98Y/E176V/E187L/E204Q/E69T/I218V/K202T/L119I/Q94N/R155S/R180L/S121R/S35A/S48A/T118I/V127L/V306I/V36M/Y140S/Y91F)
HLA B*5101 = HLA B*5101 (Homo sapiens, UniProt P01889, A329T/A93T/A95T/C349S/D138N/D201E/D98Y/E187L/E204Q/E69T/G107R/I218V/K202T/L105A/L119W/N104I/Q94N/R106L/R155S/R180L/S101N/S121T/S35A/S48A/V306I/V36M/Y195H/Y91F)
HLA A*6802 = HLA A*6802 (Homo sapiens, UniProt P04439, A269V/D140Y/D185E/E176V/E277Q/E87N/F33Y/G231S/I121R/I166T/I218V/L180W/L300P/L318F/N151K/P208A/P217A/Q86R/R138H/R169H/S129P/T345S/V36M)
HLA B*5802 = HLA B*5802 (Homo sapiens, UniProt P01889, A329T/C349S/D201E/D98Y/E176V/E187L/E204Q/E69T/G107R/I218V/I90N/K202T/L105A/N104I/N87E/Q89R/Q94S/R106L/R155S/R180L/R86G/S101N/S121W/S35A/S48A/V127L/V306I/V36M/Y140S/Y91M)
HLA A*3001 = HLA A*3001 (Homo sapiens, UniProt P04439, D140H/D185E/E176W/F33S/G80R/H175R/K168Q/R138E/R41S); assay: biochemical
HLA B*1503 = HLA B*1503 (Homo sapiens, UniProt P01889, A329T/A93T/A95T/C349S/D201E/D98Y/E187L/E204Q/K202T/N87E/Q94N/R155S/R180L/S121R/S35A/V306I/V36M/Y140S/Y91S); assay: biochemical
HLA B*5801 = HLA B*5801 (Homo sapiens, UniProt P01889, A329T/C349S/D201E/D98Y/E176V/E187L/E204Q/E69T/G107R/I218V/I90N/K202T/L105A/L119I/N104I/N87E/Q89R/Q94S/R106L/R155S/R180L/R86G/S101N/S121R/S35A/S48A/T118I/V127L/V306I/V36M/Y140S/Y91M)
H-2 D^d = H-2 D^d (Mus musculus, UniProt P01900)
Sequence of H-2 D^d (P01900 whole entry, looked up): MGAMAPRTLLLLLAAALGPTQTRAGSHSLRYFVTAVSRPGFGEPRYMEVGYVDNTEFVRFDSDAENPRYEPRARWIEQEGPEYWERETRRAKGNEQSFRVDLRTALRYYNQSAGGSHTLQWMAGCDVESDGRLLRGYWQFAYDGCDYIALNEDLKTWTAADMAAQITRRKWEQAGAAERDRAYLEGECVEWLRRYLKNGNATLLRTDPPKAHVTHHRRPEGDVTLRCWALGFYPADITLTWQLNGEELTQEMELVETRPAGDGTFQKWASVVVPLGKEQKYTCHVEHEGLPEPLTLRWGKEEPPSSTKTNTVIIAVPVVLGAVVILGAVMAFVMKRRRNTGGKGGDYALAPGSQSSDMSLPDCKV

H-2 K^k = H-2 K^k (Mus musculus, UniProt P04223)
Sequence of H-2 K^k (P01887 21-119): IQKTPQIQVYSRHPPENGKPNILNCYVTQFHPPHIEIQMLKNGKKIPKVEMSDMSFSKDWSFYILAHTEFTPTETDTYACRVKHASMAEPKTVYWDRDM
Sequence of H-2 K^k (P04223 22-369): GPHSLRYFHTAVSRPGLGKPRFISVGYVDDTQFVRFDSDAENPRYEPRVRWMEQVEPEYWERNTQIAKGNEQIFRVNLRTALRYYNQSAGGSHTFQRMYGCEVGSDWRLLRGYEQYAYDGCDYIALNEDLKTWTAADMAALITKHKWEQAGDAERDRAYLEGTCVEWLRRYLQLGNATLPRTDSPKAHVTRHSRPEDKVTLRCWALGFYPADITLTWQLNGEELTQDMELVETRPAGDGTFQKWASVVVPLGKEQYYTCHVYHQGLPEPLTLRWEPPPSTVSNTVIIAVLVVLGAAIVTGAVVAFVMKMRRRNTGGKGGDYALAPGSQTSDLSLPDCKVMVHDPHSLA

HLA B*5401 = HLA B*5401 (Homo sapiens, UniProt P01889, A329T/C349S/D138N/D201E/E176V/E187T/E204Q/E69G/I76V/K202T/L119W/R155S/R180L/S121T/S35A/S48A/V127L/V306I/V36M/Y140L)
HLA B*5301 = HLA B*5301 (Homo sapiens, UniProt P01889, A329T/A93T/A95T/C349S/D201E/D98Y/E176V/E187L/E204Q/E69T/G107R/I218V/K202T/L105A/L119I/N104I/Q94N/R106L/R155S/R180L/S101N/S121R/S35A/S48A/T118I/V127L/V306I/V36M/Y140S/Y91F)
HLA A*3201 = HLA A*3201 (Homo sapiens, UniProt P04439, A270S/D101S/D185E/E176V/E277Q/F133L/G103R/G107R/G231S/H175R/I121M/I218V/I322F/K168Q/L105A/L300P/L318F/M331R/P208A/P217A/Q94H/R106L/R138Q/S129P/T104I/T323A/T345S/V100E/V321M/V358M); assay: biochemical
HLA B*0801 = HLA B*0801 (Homo sapiens, UniProt P01889, A93T/A95T/D138N/E176V/E187T/K202T/Q94N/R180D/S35A/V36M/Y33D/Y91F); assay: biochemical
H-2 K^d = H-2 K^d (Mus musculus, UniProt P01902)
Sequence of H-2 K^d (P01887 21-119): as the sequence (P01887 21-119) above
Sequence of H-2 K^d (P01902 22-368): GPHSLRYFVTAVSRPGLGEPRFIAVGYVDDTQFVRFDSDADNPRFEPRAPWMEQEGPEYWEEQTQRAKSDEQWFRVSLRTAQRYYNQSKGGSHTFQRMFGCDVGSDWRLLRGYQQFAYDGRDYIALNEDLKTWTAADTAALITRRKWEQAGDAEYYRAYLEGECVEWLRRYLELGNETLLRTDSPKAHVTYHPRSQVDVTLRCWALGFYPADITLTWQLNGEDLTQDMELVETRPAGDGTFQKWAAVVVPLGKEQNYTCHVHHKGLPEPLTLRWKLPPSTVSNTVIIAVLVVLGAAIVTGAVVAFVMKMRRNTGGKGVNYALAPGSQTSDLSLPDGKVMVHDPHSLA

H-2 D^b = H-2 D^b (Mus musculus, UniProt P01899)
Sequence of H-2 D^b (P01887 21-119): as the sequence (P01887 21-119) above
Sequence of H-2 D^b (P01899 25-362): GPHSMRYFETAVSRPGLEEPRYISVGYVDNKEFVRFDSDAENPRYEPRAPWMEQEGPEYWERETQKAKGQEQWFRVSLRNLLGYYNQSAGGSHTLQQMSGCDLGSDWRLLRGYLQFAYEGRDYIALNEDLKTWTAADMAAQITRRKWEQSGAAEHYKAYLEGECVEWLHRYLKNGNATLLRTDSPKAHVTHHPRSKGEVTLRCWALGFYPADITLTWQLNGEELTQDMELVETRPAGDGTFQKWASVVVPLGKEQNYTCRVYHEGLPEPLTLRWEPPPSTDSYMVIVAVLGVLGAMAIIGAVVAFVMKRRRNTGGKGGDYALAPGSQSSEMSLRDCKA

HLA B*1501 = HLA B*1501 (Homo sapiens, UniProt P01889, A329T/A93T/A95T/C349S/D201E/D98Y/E187L/E204Q/E69M/E70A/K202T/N87E/Q94N/R155S/R180W/S121R/S35A/S48A/V306I/V36M/Y140S/Y91S); assay: biochemical

Sequence | Normalized average relative binding affinity(ARB) (HLA B*3501) | Normalized average relative binding affinity(ARB) (HLA B*5101) | Normalized average relative binding affinity(ARB) (HLA A*6802) | Normalized average relative binding affinity(ARB) (HLA B*5802) | Normalized average relative binding affinity(ARB) (HLA A*3001) | Normalized average relative binding affinity(ARB) (HLA B*1503) | Normalized average relative binding affinity(ARB) (HLA B*5801) | Normalized average relative binding affinity(ARB) (H-2 D^d) | Normalized average relative binding affinity(ARB) (H-2 K^k) | Normalized average relative binding affinity(ARB) (HLA B*5401) | Normalized average relative binding affinity(ARB) (HLA B*5301) | Normalized average relative binding affinity(ARB) (HLA A*3201) | Normalized average relative binding affinity(ARB) (HLA B*0801) | Normalized average relative binding affinity(ARB) (H-2 K^d) | Normalized average relative binding affinity(ARB) (H-2 D^b) | Normalized average relative binding affinity(ARB) (HLA B*1501)
XXXXXXXDX [3064.0143] | 0.073 | 0.17 | 0.093 | 0.087 | 0.052 | 0.14 | 0.063 | 0.44 | 0.26 | 0.038 | 0.082 | 0.10 | 0.17 | 0.62 | 0.090 | 0.049
XXXXXXXEX [3064.0144] | 0.098 | 0.34 | 0.14 | 0.30 | 0.12 | 0.11 | 0.18 | 0.65 | 0.46 | 0.13 | 0.10 | 0.27 | 0.24 | 0.55 | 0.33 | 0.23
XXXXXXXFX [3064.0145] | 0.13 | 1.0 | 0.31 | 0.33 | 0.76 | 0.21 | 1.0 | 0.75 | 1.0 | 0.080 | 0.46 | 0.24 | 0.32 | 0.66 | 0.79 | 0.32
XXXXXXXGX [3064.0146] | 0.098 | 0.20 | 0.31 | 0.87 | 0.18 | 0.18 | 0.21 | 0.62 | 0.32 | 0.083 | 0.094 | 0.54 | 0.099 | 0.63 | 0.043 | 0.15
XXXXXXXHX [3064.0147] | 0.15 | 0.33 | 0.046 | 0.26 | 0.44 | 0.84 | 0.18 | 0.11 | 0.0052 | 0.043 | 0.74 | 0.49 | 0.15 | 0.096 | 0.073 | 1.0
